Assay results from PubChem BioAssay (NCI).
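1) Cells in 96-well plates. 2) Compound, 48 h, 5 concentrations. 3) Linear interpolation between surrounding doses. 4) Unreached endpoint = highest concentration. The concentration for full growth arrest is given as TGI.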

Experiments:
Experiment in all cases: NCI anticancer screen, dose series, 48 h
[1] = system: HCT-116 colon
[2] = system: SK-MEL-28 melanoma
[3] = system: MOLT-4 leukemia
[4] = system: HT29 colon
[5] = system: TK-10 renal
[6] = system: NCI-H226 lung
[7] = system: SF-539 CNS
[8] = system: OVCAR-3 ovarian
[9] = system: SW-620 colon
[10] = system: EKVX NSCLC
[11] = system: SF-295 CNS

Row | Compound | TGI [1] [µM] | TGI [2] [µM] | TGI [3] [µM] | TGI [4] [µM] | TGI [5] [µM] | TGI [6] [µM] | TGI [7] [µM] | TGI [8] [µM] | TGI [9] [µM] | TGI [10] [µM] | TGI [11] [µM]
1 | Cc1cc(S(=O)(=O)Nc2nnc3c(C(F)(F)F)cc(Cl)cn23)c(S)cc1Cl | > 100 | > 100 | > 100 | > 100 | > 100 | > 100 | > 100 | > 100 | > 100 | > 100 | 
2 | COC(=O)c1ccc(-c2nc(C#N)c(N)o2)cc1 | > 100 | > 100 | > 100 | > 100 | > 100 | > 100 | > 100 | > 100 | > 100 | > 100 | > 100
3 | CC(=O)N(CN1C(=O)CCC1C(=O)O)c1ccccc1 (stereo unspecified) | > 100 | > 100 | > 100 | > 100 | > 100 | > 100 | > 100 | > 100 | > 100 | > 100 | > 100
4 | CCN(CC)CCO/N=C1\CC[C@H]2[C@@H]3CC=C4C[C@@H](O)CC[C@]4(C)[C@H]3CC[C@]12C | 30.2 | 31.1 | 40.4 | 22.5 | 96.1 | 33.1 | 27.6 | 43.8 | 30.4 | > 100 | 38.6
5 | O=C(/C=C/c1ccc(-c2ccccc2[N+](=O)[O-])o1)NCc1ccc(C(=O)NCCc2ccccc2)cc1 | > 100 | > 100 | > 100 | > 100 | > 100 | > 100 | > 100 | > 100 | > 100 | > 100 | > 100
6 | Cc1ccc(S(=O)(=O)n2cncc2CO)cc1 | > 100 | > 100 | > 100 | > 100 | > 100 | > 100 | > 100 | > 100 | > 100 | > 100 | > 100
7 | CCOC(=O)c1ccc(C(=O)C(C(C)=O)C(=O)OC(C)(C)C)n1C (stereo unspecified) | > 100 | > 100 | > 100 | > 100 | > 100 | > 100 |  | > 100 | > 100 | > 100 | > 100
8 | Cc1ccc(C(=O)N(C(C)C)C(C)C)cc1N=NN(C)C | > 100 | > 100 | > 100 | > 100 | > 100 | > 100 | > 100 | > 100 | > 100 | > 100 | > 100
9 | CCc1nnc(-n2c(C)nc3cc(Cl)ccc3c2=O)s1 | > 100 | > 100 | > 100 | > 100 | > 100 | > 100 |  | 43 | > 100 | > 100 | > 100
10 | CN(CCc1ccc(Cl)c(Cl)c1)[C@H]1CCCC[C@H]1N1CCCC1 | > 100 | > 100 | > 100 | > 100 | > 100 | > 100 |  | > 100 | > 100 | > 100 | > 100
11 | COc1ccc(C2OC(=O)c3c2ccc2ccccc32)c(C)c1 (stereo unspecified) | > 100 | > 100 | 37 | > 100 | 17.7 | 67.6 |  |  | > 100 | > 100 | 
12 | CN(C)CCOC(=O)COc1ccc(Cl)cc1 | > 100 | > 100 | > 100 | > 100 |  | > 100 | > 100 | > 100 | > 100 | > 100 | > 100
13 | CC(NC(=O)/C(=C/c1ccccc1O)NC(=O)c1ccccc1)C(=O)O (stereo unspecified) | > 100 | > 100 | > 100 | > 100 | > 100 | 45.5 | 46.4 |  | > 100 | 88.2 | 38.8
14 | c1ccc(CCN2CCCCCC2)nc1 | > 100 | > 100 | > 100 | > 100 | > 100 | > 100 |  | > 100 | > 100 | > 100 | > 100
15 | CN=C(Nn1cnnc1)OC | > 100 | > 100 | > 100 | > 100 |  |  |  | > 100 | > 100 | > 100 | > 100
16 | Clc1nc(-[n+]2ccc(-c3ccncc3)cc2)nc(Nc2ccccc2)c1Cl | > 100 | > 100 | > 100 | > 100 | > 100 | > 100 | > 100 | > 100 | > 100 | > 100 | 
17 | O=[N+]([O-])c1cccc([N+](=O)[O-])c1S(=O)(=O)c1ccccc1 | 4.04 | 15.2 |  | 36.2 | 30.2 | 36.8 | 30.2 | 5.5 | 5.9 | 42.8 | 31.8
18 | CC(CCC(=O)O)[C@H]1CCC2[C@H]3C(CC[C@@]21C)[C@@]1(C)CCC(O)C[C@H]1C[C@@H]3O (stereo partly specified) | > 100 | > 100 | > 100 | > 100 | > 100 | > 100 | > 100 |  | > 100 | > 100 | 
19 | CCOC(=O)c1cc2c(OC(C)=O)ccc(OC(C)=O)c2s1 | 9 | 5.45 | > 24 | 10.7 | 17.5 | 55 | 3.36 | 3.15 |  | 7.73 | 18.3
20 | COC(=O)c1sc(=S)sc1SCc1ccccc1CSc1sc(=S)sc1C(=O)OC | > 100 | > 100 | > 100 | > 100 | > 100 | > 100 |  | > 100 | > 100 | > 100 | > 100
21 | CCOC(=O)C(C)(C)Oc1ccc2c(=O)cc(-c3ccccc3)oc2c1 | 31.1 | 30.7 | 32.5 |  | > 100 | 47 | 38.2 | 39 | 48.5 | 84.8 | 75
